According to US20100099698A1, “Compositions for Improving Skin Conditions Comprising Matrine or Its Oxidized Derivatives” (Biospectrum Inc., priority 2007, published 2010):

Legend:
tyrosinase = target: T1, tyrosinase (Mus musculus, UniProt P11344); experiment: Inhibition of intracellular tyrosinase activity in melanoma cells; assay type: cell-based, Murine; conditions: B16-F1, read-out: Inhibitory rate of intracellular tyrosinase activity (%)
T1 construct: This cell pellets were lysated using lysis buffer, centrifuged at 12,000 rpm for 10 min and the supernatant was collected; endogenous in cells; host or cells: B16 F1 mouse melanoma cells (Korean Cell Line Bank)
T1 sequence (P11344 19-533): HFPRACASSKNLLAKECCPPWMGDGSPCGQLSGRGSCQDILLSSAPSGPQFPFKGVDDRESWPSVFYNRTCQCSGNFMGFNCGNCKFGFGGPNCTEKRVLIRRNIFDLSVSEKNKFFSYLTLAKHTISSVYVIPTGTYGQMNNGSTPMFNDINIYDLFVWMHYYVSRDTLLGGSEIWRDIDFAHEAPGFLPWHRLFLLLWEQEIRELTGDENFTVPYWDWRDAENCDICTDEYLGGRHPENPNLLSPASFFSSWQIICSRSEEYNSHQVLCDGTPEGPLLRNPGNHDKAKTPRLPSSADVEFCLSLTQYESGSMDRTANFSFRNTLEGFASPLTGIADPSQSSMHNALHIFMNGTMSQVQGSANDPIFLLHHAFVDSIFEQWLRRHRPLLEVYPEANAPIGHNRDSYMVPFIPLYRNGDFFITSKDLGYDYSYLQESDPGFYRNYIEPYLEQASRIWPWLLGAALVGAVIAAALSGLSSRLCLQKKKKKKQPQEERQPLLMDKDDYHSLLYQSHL
Procedure: After measuring the inhibition of melanin production by matrine and oxymatrine using B16 mouse melanoma cells (Korean Cell Line Bank), the measurement was compared with that for the inhibition of intracellular tyrosinase activities by arbutin, known as a melanin production inhibitor.
Murine melanoma (B-16 F1) cells were seeded into each well of a 6-well plate (1×10^5 cells/well) in DMEM containing 10% FBS (fetal bovine serum) and the cells were cultured to about more than 80% adherence by incubating in a CO2 incubator under conditions of 37° C. and 5.0% CO2. After cultivation, the medium was removed and samples were replaced in medium diluted at suitable concentration, followed by incubating for 3 days under conditions of 37° C. and 5.0% CO2. […] The cells removing medium were washed with PBS (phosphate buffer saline) and treated with trypsin to collect cells. Number of the collected cells was calculated using hematocytometer, centrifuged at 5,000 to 10,000 rpm for 10 min and the supernatant was eliminated, thereby obtaining pellets. This cell pellets were lysated using lysis buffer, centrifuged at 12,000 rpm for 10 min and the supernatant was collected. Then, the cell solution was measured for absorbance at 492 nm using microplate reader and the activity of tyrosinase per cell constant number was estimated.

pigmentation of skin = experiment: Skin whitening of UV-induced pigmentation, chromameter L* value; assay type: in vivo, brown guinea pigs; conditions: for Whitening effects (ΔL): topical once or twice a day for 50 days, UV-pigmented abdominal skin
Procedure: A whitening effect of matrine and oxymatrine was measured using brown guinea pigs (Charles River Laboratories, Inc.), known to increase its pigmentation upon exposure to ultraviolet light, like in humans. To cause pigmentation in the brown guinea pig by ultraviolet (UV), aluminum foil with square windows of 3×3 cm^2 was adhered to hair-removed abdominal skin of brown guinea pig, and then UV light was irradiated thereon with a SE lamp (wavelength 290-320 nm, Toshiba) (total irradiation energy=1350 mJ/cm^2). After UV irradiation, the aluminum foil was removed and samples (matrine, oxymatrine or albutin) were applied as the following method. […] From the maximum, samples were applied. Applications performed once or twice a day for 50 days. […] The control with only the solvent was applied to another site. Occurrence of cumulative irritation also was examined. The degree of pigmentation of skin was determined using a chromameter (CR2002, MINOLTA, JP) to estimate the effects of applied samples. L*a*b* colorimetric system was used to classify color and L* value was used as standard in the present invention. The L* value was corrected using white board standard and was measured more than five times at one site, repeatedly. Pigmentation was evenly distributed. Skin color differences (ΔL*) between application initial point and application terminal point were obtained and then using these values, their effects of the applied samples were estimated. ΔL*=L* value at […] after application-L* value at application initial day. Equation 1 ΔL* values were obtained both at sample application site and control application site and compared, whereby the effects of the whitening substances can be estimated.

human skin = experiment: 24-hour cumulative patch test (Finn chamber), cumulative skin irritation; assay type: in vivo; conditions: for Average reaction level: 9 patches, 30 adults, safe if below 3
Procedure: In order to find out whether matrine and oxymatrine are safe for use on human skin, a skin safety test was conducted. Suitable for this was a cumulative skin irritation test.
Squalene-based preparations containing matrine and oxymatrine in amounts of 1%, 5%, and 10% were applied in patches 9 times to the upper arms of 30 healthy adults once every other day for a total time period of 24 hours. This 24-hour cumulative patch test was conducted to determine whether matrine and oxymatrine irritates the skin or not.
The Finn chamber (Epitest Ltd, Finland) was chosen as the patching method. The above preparation for external use on the skin was dropped into each chamber in an amount of 15 μl, and a patch was applied.
Average reaction level=[{(Reaction index x reaction level)/No. of test subjects×maximum points (4 points)}×100]÷No. of test (9 times) Equation 2
Points were marked in accordance with reaction level, for example, ± for 1 point, + for 2 points, and ++ for […]. The composition can be considered safe if the average reaction level is below 3.

[1] = Anti-oxidation: removal of superoxide anion generated by xanthine oxidase (SOD Assay Kit-WST); assay type: biochemical
Procedure: This experiment evaluates anti-oxidation activity of sample by observing removal of superoxide anion generated by xanthine oxidase. The experiment was performed using the kit (SOD Assay Kit-WST) purchased from Dojindo (JP) in accordance with manufacture's protocol.

Interleukin-2 promoter = experiment: Interleukin-2 luciferase reporter activity in PHA-activated Jurkat cells; assay type: cell-based, Human; conditions: PHA alone = 100
Procedure: Interleukin-2 promoter was reported to play an important role in the generation of cytokine related to inflammatory. The activity of interleukin-2 luciferase was measured using the following method: […] Following 24 hr, the cell was collected and the luciferase activity was measured using luminometer (Berthold Technologies GmbH&Co.KG, Germany).

[2] = 5% in squalene, Week 1, of 30 subjects
[3] = 10% in squalene, Week 1, of 30 subjects

Row | Structure (SMILES) | inhibition at 10 µM (tyrosinase) [%] | inhibition at 100 µM (tyrosinase) [%] | inhibition at 500 µM (tyrosinase) [%] | Whitening effects (ΔL) (pigmentation of skin; 0.2 %) | Whitening effects (ΔL) (pigmentation of skin; 1.0 %) | Removal rate of superoxide anion (%) ([1]; 10 μM) | Removal rate of superoxide anion (%) ([1]; 100 μM) | Removal rate of superoxide anion (%) ([1]; 500 μM) | IL-2 luciferase activities (Interleukin-2 promoter; 10 uM with PHA (100 ng/ml)) | IL-2 luciferase activities (Interleukin-2 promoter; 100 uM with PHA (100 ng/ml)) | IL-2 luciferase activities (Interleukin-2 promoter; 500 uM with PHA (100 ng/ml)) | further results
1 | O=C1CCC[C@@H]2[C@H]3CCC[N+]4([O-])CCC[C@@H](CN12)[C@@H]34 (stereo partly shown) [Oxymatrine, oxymatrine] | 11 | 29 | 34 | 0.24 | 0.50 | 4 | 17 | 32 | 95 | 78 | 62 | No. of test subjects with reaction, 1st, ± (human skin; human, in vivo): 2; No. of test subjects with reaction, 2nd, ± (human skin; human, in vivo): 0; No. of test subjects with reaction, 1st, ± (human skin; in vivo): −
2 | O=C1CCC[C@@H]2[C@H]3CCCN4CCC[C@@H](CN12)[C@@H]34 [Matrine, matrine] | 13 | 32 | 37 | 0.38 | 0.53 | 6 | 12 | 24 | 92 | 77 | 68 | Occurrence of cumulative irritation (pigmentation of skin; brown guinea pig skin, application for 50 days): not observing the occurrence of cumulative irritation; Average reaction level (human skin; 1% in squalene): 0; No. of test subjects with reaction, 2nd, ± (human skin; 1% in squalene, Week 1, of 30 subjects): 0; Average reaction level (human skin; 5% in squalene): 0.09; No. of test subjects with reaction, 1st, ± (human skin; [2]): 1; No. of test subjects with reaction, 2nd, ± (human skin; [2]): 0; Average reaction level (human skin; 10% in squalene): 0.18; No. of test subjects with reaction, 1st, ± (human skin; [3]): 2; No. of test subjects with reaction, 2nd, ± (human skin; [3]): 0
